# “And” between values parts separate entries of the source, which are not always exact repeats. Equal values may be shown once.
# What was measured:
# [1] = biological target: T1, GluA1 (Rattus norvegicus, UniProt P19490); assay: [3H]-AMPA radioligand binding, membranes of HEK293-T/17 cells expressing GluA1; details: 100 μM; 20 nM [3H]-AMPA; 1 h at 4° C.
# T1 construct: expressed in transfected cells; host or cells: HEK293-T/17 (CRL-11268)
# Procedure: Radioligand binding. HEK293-T/17 cells were transfected with 5 μg of iGluR cDNA in 100 mm^2 culture dishes. Two days post transfection, the plates were washed twice with ice-cold Dulbecco's phosphate-buffered saline (DPBS) and then incubated with 50 mM Tris (pH 7.4) and 1 mM EDTA for three minutes on ice. Cells were collected and centrifuged for five minutes at 800 g at room temperature. The cell pellet was homogenized in 50 mM Tris (pH 7.4) containing 320 mM sucrose (homogenization buffer, HB) on ice using a glass dounce homogenizer and centrifuged at 4° C. for 10 minutes at 800 g. The supernatant, containing the membrane fragments, was saved and the remaining pellet containing nuclei and unbroken cells was resuspended in HB. This homogenization process was repeated two more times and after collection of the final resulting supernatant, the remaining pellet was discarded. The collected supernatants were centrifuged at 4° C. for 20 minutes at 20000 g and the resulting supernatant was discarded leaving a membrane-containing pellet. […] Non-specific binding was determined as the amount of radioligand bound in the presence of a saturating concentration of glutamate (1 mM). Total binding was determined as the amount of radioligand bound in the absence of any competing ligands minus the non-specific binding. […]
# [2] = tested on: AMPA receptor EPSCs, CA1 pyramidal neurons; assay: AMPA receptor EPSCs at Schaffer collateral-CA1 synapses, acute hippocampal slices; type: cell-based, mouse; details: 20 μM
# Procedure: For recordings from acute hippocampal slices, brains from P15-21 C57Bl/6 mice were sliced transversely (350 μm thickness) in a sucrose slicing solution containing (in mM) 85 NACl, 2.5 KCl, 1.25 NaH2PO4, 25 NaHCO3, 25 glucose, 75 sucrose, 0.5 CaCl2, 4 MgCl2, 0.5 Na ascorbate, 10 μM DL-APV and 100 μM kynurenic acid (pH 7.3). After slicing, the solution was exchanged with an incubation solution containing (in mM) 125 NaCl, 2.4 KCl, 1.2 NaH2PO4, 25 NaHCO3, 25 glucose: 1 CaCl2, 2 MgCl2, 0.5 Na ascorbate, 10 μM DL-APV and 100 μM kynurenic acid (pH 7.3) that was bubbled continuously with CO2-balanced O2 (carbogen). […] Recordings in voltage clamp mode used the CsF/CsCl internal solution and carbogenated external recording solution containing (in mM) 120 NaCl, 2.4 KCl, 2 MgCl2, 1 CaCl2, 25 NaHCO3, 1.2 NaH2PO4, 25 glucose, 10 μM bicuculline methiodide, 50 μM PTX and 50 μM D-APV (pH 7.3). […] NMDA EPSCs were validated by addition of D-APV (50 μM) at the end of each recording. Hippocampal CA1 or CA3 pyramidal cells were voltage clamped at −70 mV and stimulated with a monopolar electrode either the stratum radiatum or stratum lucidum, respectively. IKM compounds were applied for 10 minutes and changes in the peak amplitudes of excitatory post-synaptic currents (EPSCs) and paired-pulse ratios were analyzed during the last two minutes of drug application. EPSC charge transfer, AP frequency, paired-pulse ratio and EPSC peak amplitude were analyzed with Mini-Analysis v6.03 (Synaptosoft, Decatur, Ga.) and Clampfit v10.0 (MDS, Sunnyvale, Calif.) software.
# [3] = tested on: AMPA receptor-mediated EPSCs in primary hippocampal neurons; assay: AMPA receptor EPSC charge transfer during spontaneous synaptic bursts, whole-cell voltage clamp, cultured hippocampal neurons; type: cell-based; details: 30 μM
# Procedure: Experiments involving primary hippocampal neurons were carried out as described previously (Vivithanaporn et al., 2007). Dissociated neurons were cultured from E18 prenatal hippocampi and were used for analysis from between 17 and 28 days in vitro. The extracellular solution was the same as used for recombinant receptor analysis, while the internal solution for voltage clamp recordings contained (in mM) 95 CsF, 25 CsCl, 10 Cs-HEPES, 10 EGTA, 2 NaCl, 2 Mg-ATP, 10 QX-314, 5 TEA. and 5 4-AP (pH 7.3) and the internal solution for current clamp recordings contained (in mM) 120 KMeSO4, 5 KCl, 5 NaCl, 1 MgCl2, 11 Na-HEPES, 10 phosphocreatine, 4 Na-ATP, and 0.3 Na-GTP (pH 7.0). Borosilicate patch electrodes were pulled and fire polished to 3-5 MΩ resistance. Both whole cell current clamp and voltage clamp recordings were performed using an Axopatch 200B amplifier (MDS, Sunnyvale, Calif.) and filtered at 20 kHz. Gigaohm seals were established in voltage clamp mode and, after membrane rupture, the recordings were carried out either in voltage clamp (clamped at Vm=−70 mV) with a […] series resistance, which was compensated to ˜60%, or in current clamp mode ([…]) with the bridge balance was corrected and pipette resistance neutralized. In vitro status epilepticus (SE) was induced as described previously (Deshpande et al., 2007; Pal et al., 1999) and action potentials were recorded in current clamp mode. Briefly for in vitro SE, magnesium-containing external solution was exchanged for external solution without magnesium and supplemented with 2 μM glycine. This solution exchange produced a period of rapid depolarization and increased AP firing, followed by a period of channel inactivation and reduced AP firing. After channel inactivation, neurons characteristically would hyperpolarize to hold at a membrane voltage (Vm) which was depolarized relative to control Vm, with an increase in AP firing frequency. […] External solutions were bath-applied at a flow rate of 1.5-2 ml/minute. After recording a basal control period, IKM compounds were applied for five minutes (10 minutes for in vitro SE experiments) and changes in excitatory post-synaptic current (EPSC) charge transfer or action potential (AP) frequency were analyzed during the last two minutes of IKM application.
# We first measured the actions of the IKM compounds on the charge transfer during spontaneously occurring, polysynaptic bursts of AMPA receptor excitatory post-synaptic currents (EPSCs) in cultured hippocampal neurons (recorded in the presence of bicuculline methiodide and picrotoxin to inhibit GABAA receptors and D-APV to inhibit NMDA receptors). […] IKM-159 had the greatest inhibitory effect at a fixed concentration of 30 μM, producing a reduction in charge transfer of 65±5% (n=6, p<0.01). […] Despite the polar chemical nature of the compounds, recoveries to basal EPSC charge transfers were minimal.
# T1 sequence (P19490 19-907 isoform P19490-2 limits assumed): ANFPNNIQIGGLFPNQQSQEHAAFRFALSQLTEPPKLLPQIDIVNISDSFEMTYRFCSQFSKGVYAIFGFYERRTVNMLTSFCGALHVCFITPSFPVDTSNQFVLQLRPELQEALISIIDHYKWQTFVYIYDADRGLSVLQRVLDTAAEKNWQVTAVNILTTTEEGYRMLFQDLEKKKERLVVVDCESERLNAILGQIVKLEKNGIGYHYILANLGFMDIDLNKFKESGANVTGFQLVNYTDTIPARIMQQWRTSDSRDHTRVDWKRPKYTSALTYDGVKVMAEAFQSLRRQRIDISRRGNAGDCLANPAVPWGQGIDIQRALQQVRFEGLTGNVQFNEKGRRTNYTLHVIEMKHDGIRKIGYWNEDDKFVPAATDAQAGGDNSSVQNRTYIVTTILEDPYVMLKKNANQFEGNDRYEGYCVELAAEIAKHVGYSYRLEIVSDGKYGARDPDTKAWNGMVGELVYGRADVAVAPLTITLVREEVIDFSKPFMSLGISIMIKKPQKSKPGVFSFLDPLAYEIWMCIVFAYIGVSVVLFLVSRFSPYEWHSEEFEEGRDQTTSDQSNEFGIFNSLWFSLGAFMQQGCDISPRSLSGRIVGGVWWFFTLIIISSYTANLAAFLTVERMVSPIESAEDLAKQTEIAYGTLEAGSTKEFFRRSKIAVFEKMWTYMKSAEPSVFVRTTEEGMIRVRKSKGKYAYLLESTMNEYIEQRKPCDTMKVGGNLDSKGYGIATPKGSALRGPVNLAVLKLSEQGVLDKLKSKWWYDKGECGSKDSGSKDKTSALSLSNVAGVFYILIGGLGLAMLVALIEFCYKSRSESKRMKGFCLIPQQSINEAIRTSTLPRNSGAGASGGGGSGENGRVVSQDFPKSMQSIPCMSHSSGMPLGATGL
smiles,measurement,setting,value
O=C(O)C[C@@]12O[C@H]3C=CCN[C@H]3C1CN[C@H]2C(=O)O (stereo partly shown) [IKM-159],[3H]AMPA bound as percent of total (specific) binding in absence of competing ligand,[1],135±23% and 134±23%
same,AMPA EPSC peak amplitude as percent of control peak amplitude,[2],66±5%
same,reduction of mean amplitude of AMPA receptor EPSCs,[2],34±5%
same,time synaptic amplitudes remained depressed after application,[2],> 10 min
same,mean AMPA receptor EPSC amplitude in presence of compound,[2]; control 560±20 pA,370±40 pA
same,reduction from control charge transfer,[3],65±5%
same,charge transfer during bursts of AMPA receptor-mediated synaptic events as a percent of the charge transfer during the control period,[3]; voltage clamped at −70 mV,35±5%

# Source: US8895579B2, “Heterotricyclic AMPA receptor antagonists for treatment of epilepsy, pain, and other neurological disorders and diseases” (Northwestern University, priority 2010, dated 2014)
